Series [1] concerns MDA-MB-231 breast cancer cells. In words: Anti-proliferation assay (MTT) after 2 h treatment at pH 7.4 or 5.0. Format: cell-based, Human. Particulars: for enhancement of cytotoxicity of free peptide at low pH: pH 5.0, 10 μM; for enhancement of cytotoxicity of free peptide at low pH / cytotoxicity of free peptide at physiological pH: n = 9; for cytotoxicity of free peptide at physiological pH: pH 7.4, 72 h recovery. The method, then:
We have previously shown that this treatment protocol and pHLIP alone have no effect on MDA-MB-231 cell viability.
Figure 2 Inhibition of cell growth. MDA-MB-231 cells treated with 4-amino acid pHLIP-KLAKS conjugates. Black columns represent cells treated at pH 7.4 and cells treated at low pH are shown in grey. For each condition, 3,000 cells/well (96-well plate) were seeded, allowed to adhere overnight, treated for 2 hours, washed once with media and cultured for 72 hour in complete medium at physiologic pH. Cell viability was assessed with the MTT assay. All measurements were normalized to the media control (0 μM, pH 7.4), as 100% cell viability. Results are shown as mean ± SEM (n = 9–12).
For each condition, 3,000 cells/well (96-well plate) were seeded, allowed to adhere overnight, treated for 2 hours, washed once with media and cultured for 72 hour in complete medium at physiologic pH. Cell viability was assessed with the MTT assay. All measurements were normalized to the media control (0 μM, pH 7.4), as 100% cell viability. Results are shown as mean ± SEM (n = 9–12). Data at pH 5.0 (A and B) were fitted with a sigmoidal dose-response using Prism 6 for Macintosh (GraphPad, Inc).
Figure 5 Effect of free peptides on cell viability. MDA-MB-231 cells were treated with 10 μM of either (KLAKLAK)2 (A) or KLAKLAK (B) at pH 7.4 (black circles) or pH 5.0 (grey squares) for 2 hours, washed once with media and cultured for 72 hours in complete medium at physiologic pH. Cell viability was assessed with the MTT assay, and all measurements were normalized to the media control (0 μM, pH 7.4), as 100% cell viability. Results are shown as mean ± SEM (n = 9).
Cells were seeded in 96-well plates at a density of 3,000 cells/well and incubated overnight. […] Treatment solutions were collected and their pH values measured using a micro-combination pH probe (Microelectrodes, Inc.). […] Cell viability was determined after 72 hours using the colorimetric MTT assay. Briefly, 10 μL of a 5 mg/mL MTT stock solution was added to the treated cells and incubated for 2 hours at 37 °C. The resulting formazan crystals were solubilized in 200 μL DMSO and the absorbance measured at 580 nm using an Infinite 200 PRO microplate reader (Tecan). Cell viability was calculated against control cells treated with media at physiologic pH. When needed, data were fitted with a sigmoidal dose-response using Prism 5 for Macintosh (GraphPad, Inc). […]
Figure S1. Effect of Free Peptides on Cell Viability and Plasma Membrane Integrity. For each condition, 3,000 cells/well (96-well plate) were seeded, incubated until confluent (~72 hours) and treated for 2 hours with 10 µM of free pHLIP(WT) or free tetrapeptides at pH 7.4 (black bars) and a low pH (grey bars). (A) Cell viability assay. After the 2-hour treatment, cells were washed once with media and cultured for 72 hour in complete medium at physiologic pH. Cell viability was assessed with the MTT assay. All measurements were normalized to the media control (0 µM, pH 7.4), as 100% cell viability. Results are shown as mean ± SEM (n=9-12). (B) After the 2-hour treatment, cells were detached and counted based on trypan blue uptake with an hemacytometer: % of intact cells corresponds to the number of cells not showing any dye uptake over the total number of cells. Results are shown as mean ± SD (n=3).

Series [2] has as its system MDA-MB-231 cells. Put plainly: Trypan Blue plasma membrane integrity assay. Particulars: 10 μM, 2 h at pH 7.4 or pH 5.0, % intact cells counted with hemacytometer, mean ± SD, n = 3. It counts as cell-based, Human. An excerpt: (§1) First, we assessed the effect of the conjugates on the integrity of cell membranes based on the uptake of Trypan Blue, which can be taken up by cells only if their plasma membrane is disrupted. […] We also measured the release of the intracellular enzyme lactate dehydrogenase (LDH) after peptide treatment, as another method to evaluate plasma membrane damage. […] Importantly, it was previously shown that neither pHLIP alone nor low pH treatments disrupts membranes, including that of MDA-MB-231 cells[20][23] (Figure S1).
(§2) Figure 4 Effect of free peptides and pHLIP-conjugates on Plasma Membrane Integrity and Lactate Dehydrogenase (LDH) Release. (A) The integrity of the plasma membrane is assessed by the uptake of trypan blue dye. […] Cells were detached and counted based on trypan blue uptake with an hemacytometer: % of intact cells corresponds to the number of cells not showing any dye uptake over the total number of cells. […] Cell media supernatant was monitored for the presence of LDH following treatment. […]
For the Trypan Blue plasma membrane integrity assays cells were seeded in 96-well plates at a density of 3,000 cells/well and incubated until confluent (~72 hours). […] After treatment, the media was removed, cells were detached using trypsin and counted based on trypan blue uptake using an hemacytometer. […] Percent LDH release was calculated against control cells treated with media at physiologic pH. […]

The subject of series [3] is MDA-MB-231 breast cancer cells. Particulars: cited from earlier work.
Series [4] relates to MDA-MB-231 cells. Put plainly: Annexin V-Alexa Fluor 488 / MitoTracker Red dual staining by flow cytometry. Format: cell-based, Human. Particulars: for PS externalization (Annexin V) and loss of mitochondrial membrane potential (MitoTracker Red) at low pH / Annexin V / MitoTracker Red effects 6 hours post-treatment: 10 μM; for PS externalization (Annexin V) and loss of mitochondrial membrane potential (MitoTracker Red) at low pH: 2 h at pH 5.0, 24 h recovery, n = 3; for Annexin V / MitoTracker Red effects 6 hours post-treatment: 2 h at pH 7.4 or 5.0, 6 h recovery, n = 3 (Figure S3).

Series [5] relates to MDA-MB-231 cells. In words: Lactate dehydrogenase (LDH) release assay. It counts as cell-based, Human. Particulars: 10 μM free peptide, 2 h at pH 5.0.
Excerpt: as §1, §2
For the Trypan Blue plasma membrane integrity assays cells were seeded in 96-well plates at a density of 3,000 cells/well and incubated until confluent (~72 hours). […] After treatment, the media was removed, cells were detached using trypsin and counted based on trypan blue uptake using an hemacytometer. […] Percent LDH release was calculated against control cells treated with media at physiologic pH.

Series [6] deals with caspases 3 and 7. Particulars: MDA-MB-231; 10 μM; 2 h at pH 7.4 or 5.0; monitored at 24, 48 and 72 hours; fluorescence 485/530 nm; n = 3 (Figure S5). The procedure:
Before treatment, construct aliquots were solubilized in an appropriate volume of DMEM without FBS (pH 7.4) so that upon pH adjustment 10 μM is obtained. […]

The values below come from paper PMC4917822, “pH-Selective Cytotoxicity of pHLIP-Antimicrobial Peptide Conjugates” (Scientific Reports, 2016).

Bridges are numbered along the chain shown (N, C = ends). Roman numbers before positions name the chains, in order. Where no end group is shown, it is not given here.

As for “I: GGEQNPIYWARYADWLFTTPLLLLDLALLVDADEGTCG-NH2 / II: CKAAK-NH2 (disulfide I:37-II:1) [pHLIP-KAAK]”, the “overall cell proliferation inhibition relative to the other 4-amino acid conjugates” value in series [1] (low pH, 1.25–10 μM, 72 h recovery) was “lower than pHLIP-KGGK”.
As for “GGEQNPIYWARYADWLFTTPLLLLDLALLVDADEGTCG (H-GGEQNPIYWARYADWLFTTPLLLLDLALLVDADEGTCG-NH2) [pHLIP(WT)]”, the “effect of free peptide on cell viability (Figure S1A)” value in series [1] (10 μM free peptide, pH 7.4 and low pH, 72 h recovery, n = 9-12) is listed as “neither pHLIP(WT) nor the tetrapeptides has any significant harmful effects”. For the same molecule, the “plasma membrane integrity (trypan blue uptake)” value in series [2] was “neither pHLIP(WT) nor the tetrapeptides has any significant harmful effects”. In series [3], the “effect of pHLIP alone on MDA-MB-231 cell viability” value was “no effect”.
In the case of `CN[C@@H]1C[C@H]2O[C@@](C)([C@@H]1OC)n1c3ccccc3c3c4c(c5c6ccccc6n2c5c31)C(=O)NC4` [staurosporine, reference compound], in series [4] (1 μM for 6 or 24 hours, n = 3 (Figure S4)), the “Annexin V / MitoTracker Red population shift (positive control)” value is “clear shift in cell population”.
Regarding CKLAKLAK, in series [5], the “LDH release 24 hours post-treatment at low pH” value is on record as “some LDH release”. Moreover, in series [4], the “PS externalization (Annexin V) and loss of mitochondrial membrane potential (MitoTracker Red) at low pH” value is recorded as “only a modest one”; the “Annexin V / MitoTracker Red effects 6 hours post-treatment” value was “no evidence of these effects”. In series [1] (72 h recovery), the “enhancement of cytotoxicity of free peptide at low pH” value is recorded as “only a modest one”. Moreover, in series [1], the “cytotoxicity of free peptide at physiological pH” value is “not significantly toxic”. Moreover, in series [6], the “caspase 3/7 activation” value is listed as “neither treatments with pHLIP-KLAKLAK or KLAKLAK induces any significant caspase activation”.
For “CKLAKLAKKLAKLAK [(KLAKLAK)2, cationic antimicrobial peptide cargo, synthesized with N-terminal Cys, amidated C-terminus]”, the “LDH release 24 hours post-treatment at low pH” value in series [5] is reported as “some LDH release”. Also, in series [4], the “PS externalization (Annexin V) and loss of mitochondrial membrane potential (MitoTracker Red) at low pH” value is “largest effect”; the “Annexin V / MitoTracker Red effects 6 hours post-treatment” value is recorded as “no evidence of these effects”. In series [1] (72 h recovery), the “enhancement of cytotoxicity of free peptide at low pH” value is reported as “greatest enhancement”. Also, the “cytotoxicity of free peptide at physiological pH” value in series [1] is “not significantly toxic”.
